Columns and labels:
Plasmodium falciparum = test: Antiplasmodial activity against blood stage Plasmodium falciparum K1 assessed as reduction in parasite growth incubated for 72 hrs by SYBR Green I fluorescence based method; format: functional, organism-based
Plasmodium berghei = test: Antimalarial activity against hepatic stage of Plasmodium berghei sporozoites GFP ANKA incubated for 3 hrs followed by replacement with fresh media for every 24 hrs by immunostaining analysis; format: functional, organism-based
[1] = (§1) Cytotoxicity against cynomolgus monkey Primary hepatocyte assessed as cell viability; format: toxicity, cell-based, Macaca fascicularis; conditions: primary hepatocytes
[2] = Selectivity index, ratio of CC50 for against Macaca fascicularis Primary hepatocyte to EC50 for hepatic stage of Plasmodium berghei sporozoites GFP ANKA; format: toxicity; conditions: cynomolgus monkey, primary hepatocytes; read-out: Ratio CC50/EC50
[3] = Solubility of the compound in PBS buffer at 1 mg incubated for 10 mins by HPLC analysis; format: physicochemical
[4] = Chromatographic hydrophobicity index, log D of the compound at pH 7.4 by HPLC analysis; format: physicochemical
[5] = Effective permeability of compound at pH 7.4 incubated for 4 hrs by PAMPA-GIT assay; format: ADME; conditions: read-out: Peff
[6] = Metabolic stability in CD-1 mouse liver microsomes assessed as half life at pH 7.4 measured upto 40 mins in presence of NADP; format: ADME, Microsome
[7] = Metabolic stability in CD-1 mouse liver microsomes assessed as intrinsic clearance at pH 7.4 measured upto 40 mins in presence of NADP; format: ADME, Microsome; conditions: read-out: CLH
Hepatocyte = test: as §1; format: toxicity, cell-based, Macaca fascicularis; conditions: hepatocytes
[8] = Effective permeability of compound at pH 5 incubated for 4 hrs by PAMPA-GIT assay; format: ADME; conditions: read-out: Peff
[9] = Effective permeability of compound at pH 6.0 incubated for 4 hrs by PAMPA-GIT assay; format: ADME; conditions: read-out: Peff
[10] = biological target: Voltage-gated inwardly rectifying potassium channel KCNH2 (Homo sapiens, UniProt Q12809); test: Inhibition of human ERG incubated for 4 hrs by fluorescence polarization assay; format: toxicity
Sequence of Voltage-gated inwardly rectifying potassium channel KCNH2 (Q12809 whole entry): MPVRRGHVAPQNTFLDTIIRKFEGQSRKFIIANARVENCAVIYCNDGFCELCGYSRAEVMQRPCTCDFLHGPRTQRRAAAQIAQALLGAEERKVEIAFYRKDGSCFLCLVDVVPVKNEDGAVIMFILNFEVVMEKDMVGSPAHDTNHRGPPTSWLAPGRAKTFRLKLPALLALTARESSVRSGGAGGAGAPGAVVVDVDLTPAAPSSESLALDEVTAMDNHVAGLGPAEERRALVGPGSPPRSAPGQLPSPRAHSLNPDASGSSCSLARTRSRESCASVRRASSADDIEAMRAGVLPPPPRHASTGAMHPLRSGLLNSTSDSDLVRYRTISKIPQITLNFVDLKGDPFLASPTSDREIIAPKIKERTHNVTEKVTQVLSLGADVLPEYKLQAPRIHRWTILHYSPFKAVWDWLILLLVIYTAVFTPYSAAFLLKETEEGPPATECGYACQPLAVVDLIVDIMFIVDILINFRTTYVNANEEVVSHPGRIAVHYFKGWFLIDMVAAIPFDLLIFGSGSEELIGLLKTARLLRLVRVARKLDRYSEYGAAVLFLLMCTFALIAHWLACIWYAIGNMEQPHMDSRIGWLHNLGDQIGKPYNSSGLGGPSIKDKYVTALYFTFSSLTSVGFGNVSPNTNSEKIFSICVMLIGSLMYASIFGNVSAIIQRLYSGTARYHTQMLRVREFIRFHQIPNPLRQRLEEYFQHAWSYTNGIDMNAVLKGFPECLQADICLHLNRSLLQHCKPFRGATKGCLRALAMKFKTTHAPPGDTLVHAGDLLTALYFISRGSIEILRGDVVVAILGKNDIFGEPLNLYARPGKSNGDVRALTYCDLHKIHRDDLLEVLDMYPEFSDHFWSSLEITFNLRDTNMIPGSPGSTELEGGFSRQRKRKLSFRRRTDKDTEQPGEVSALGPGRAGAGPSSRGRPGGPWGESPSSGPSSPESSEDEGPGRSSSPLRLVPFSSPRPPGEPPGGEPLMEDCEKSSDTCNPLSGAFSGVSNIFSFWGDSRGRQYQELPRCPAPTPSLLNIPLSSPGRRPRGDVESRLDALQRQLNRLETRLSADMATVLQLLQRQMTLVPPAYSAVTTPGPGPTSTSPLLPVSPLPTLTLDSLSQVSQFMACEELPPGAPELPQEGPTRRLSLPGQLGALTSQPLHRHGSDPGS

[11] = Plasmodium falciparum, K1, 72 h

Cc1ccc(-c2cc3nc(NC(C)(C)C)[nH]c(=O)c3s2)cc1
EC50 (Plasmodium falciparum; [11]): 0.2 µM
EC50 (Plasmodium berghei; Plasmodium berghei, GFP ANKA): 24.3 µM
CC50 [1]: > 200 µM
selectivity ratio [2]: > 8.2

Cc1ccc(-c2cc3nc(NC(C)(C)C)[nH]c(=O)c3s2)cc1.Cl
solubility at 10 min [3]: 7.92 µM
chromatographic logD [4]: 4.1
Papp at 4 h [5]: 0.46 ×10⁻⁶ cm/s
half-life [6]: 11 min
microsomal CLint [7]: 240 µL/min/mg

Cc1ccc(-c2cc3nc(NC(C)(C)C)nc(NC4CCCC4)c3s2)cc1
EC50 (Plasmodium falciparum; [11]): 1.3 µM

CCN(CC)CCCNc1nc(NC(C)(C)C)nc2cc(-c3ccc(C)cc3)sc12.Cl.Cl
EC50 (Plasmodium berghei): 12.3 µM
CC50 (Hepatocyte): 27.6 µM
solubility at 10 min [3]: 1400 µM
chromatographic logD [4]: 4.23
Papp at 4 h [8]: 48.9 ×10⁻⁶ cm/s
Papp at 4 h [9]: 46.6 ×10⁻⁶ cm/s
Papp at 4 h [5]: 63.1 ×10⁻⁶ cm/s
half-life [6]: 37 min
microsomal CLint [7]: 61 µL/min/mg
IC50 [10]: 1.41 µM

Cc1ccc(-c2cc3nc(NC(C)(C)C)nc(N4CCC(C)CC4)c3s2)cc1
EC50 (Plasmodium falciparum; [11]): 0.7 µM
EC50 (Plasmodium berghei; Plasmodium berghei, GFP ANKA): 35.3 µM
CC50 [1]: 52.5 µM
selectivity ratio [2]: 1.5

Cc1ccc(-c2cc3nc(NC(C)(C)C)nc(N4CCNCC4)c3s2)cc1
EC50 (Plasmodium falciparum; [11]): 1.6 µM

Cc1ccc(-c2cc3nc(NC(C)(C)C)nc(N4CCCCC4)c3s2)cc1
EC50 (Plasmodium falciparum; [11]): 1.2 µM

CCN(CC)CCNc1nc(NC(C)(C)C)nc2cc(-c3ccc(C)cc3)sc12
EC50 (Plasmodium falciparum; [11]): 0.3 µM
EC50 (Plasmodium berghei; Plasmodium berghei, GFP ANKA): 14.6 µM
CC50 [1]: 32.6 µM
selectivity ratio [2]: 2.2

CCN(CC)CCNc1nc(NC(C)(C)C)nc2cc(-c3ccc(C)cc3)sc12.Cl.Cl
EC50 (Plasmodium berghei): 14.4 µM
CC50 (Hepatocyte): 59.1 µM
solubility at 10 min [3]: 1140 µM
chromatographic logD [4]: 4.81
Papp at 4 h [8]: 51.2 ×10⁻⁶ cm/s
Papp at 4 h [9]: 52.1 ×10⁻⁶ cm/s
Papp at 4 h [5]: 73.9 ×10⁻⁶ cm/s
half-life [6]: 37 min
microsomal CLint [7]: 63 µL/min/mg
IC50 [10]: 1.07 µM

Cc1ccc(-c2cc3nc(NC(C)(C)C)nc(N4CCC(NCc5ccc(Br)cc5)CC4)c3s2)cc1
EC50 (Plasmodium falciparum; [11]): 0.7 µM
EC50 (Plasmodium berghei; Plasmodium berghei, GFP ANKA): 13.1 µM
CC50 [1]: 20.7 µM
selectivity ratio [2]: 1.6

COc1ccc(CNC2CCN(c3nc(NC(C)(C)C)nc4cc(-c5ccc(C)cc5)sc34)CC2)cc1
EC50 (Plasmodium falciparum; [11]): 0.5 µM
EC50 (Plasmodium berghei; Plasmodium berghei, GFP ANKA): 14 µM
CC50 [1]: 28.6 µM
selectivity ratio [2]: 2

Cc1ccc(CSc2cnc(NC(C)(C)C)nc2N2CCC(NCc3cccc(Cl)c3)CC2)cc1
EC50 (Plasmodium falciparum; [11]): 1.2 µM

Cc1ccc(-c2cc3nc(NC(C)(C)C)nc(N4CCSCC4)c3s2)cc1
EC50 (Plasmodium falciparum; [11]): 4.9 µM

Cc1ccc(-c2cc3nc(NC(C)(C)C)nc(N4CCC(NCc5ccccc5)CC4)c3s2)cc1
EC50 (Plasmodium falciparum; [11]): 0.7 µM
EC50 (Plasmodium berghei; Plasmodium berghei, GFP ANKA): 16.1 µM
CC50 [1]: 43.6 µM
selectivity ratio [2]: 2.7

Cc1ccc(-c2cc3nc(NC(C)(C)C)nc(NCCCN(C)C)c3s2)cc1.Cl.Cl
EC50 (Plasmodium falciparum): 0.2 µM
EC50 (Plasmodium berghei): 14.4 µM
CC50 (Hepatocyte): 35.5 µM
solubility at 10 min [3]: 1990 µM
chromatographic logD [4]: 4.29
Papp at 4 h [8]: 36.2 ×10⁻⁶ cm/s
Papp at 4 h [9]: 47.8 ×10⁻⁶ cm/s
Papp at 4 h [5]: 67.3 ×10⁻⁶ cm/s
half-life [6]: > 40 min
microsomal CLint [7]: 33 µL/min/mg
IC50 [10]: > 100 µM

Cc1ccc(-c2cc3nc(NC(C)(C)C)nc(N4CCN(C)CC4)c3s2)cc1
EC50 (Plasmodium falciparum; [11]): 1.2 µM

Cc1ccc(-c2cc3nc(NC(C)(C)C)nc(NCCN(C)C)c3s2)cc1
EC50 (Plasmodium falciparum; [11]): 0.3 µM
EC50 (Plasmodium berghei; Plasmodium berghei, GFP ANKA): 13.8 µM
CC50 (Hepatocyte): 14 µM
selectivity ratio [2]: 1

Cc1ccc(-c2cc3nc(NC(C)(C)C)nc(N4CCC(NCc5ccc(C(F)(F)F)cc5)CC4)c3s2)cc1
EC50 (Plasmodium falciparum; [11]): 1.7 µM

Cc1ccc(-c2cc3nc(NC(C)(C)C)nc(N4CCCC4)c3s2)cc1
EC50 (Plasmodium falciparum; [11]): 0.9 µM
EC50 (Plasmodium berghei; Plasmodium berghei, GFP ANKA): 14.3 µM
CC50 [1]: 17.5 µM
selectivity ratio [2]: 1.2

Cc1ccc(-c2cc3nc(NC(C)(C)C)nc(N4CCC(NCc5cccc(C(F)(F)F)c5)CC4)c3s2)cc1
EC50 (Plasmodium falciparum; [11]): 1.3 µM

Cc1ccc(-c2cc3nc(NC(C)(C)C)nc(N4CCC4)c3s2)cc1
EC50 (Plasmodium falciparum; [11]): 0.7 µM
EC50 (Plasmodium berghei; Plasmodium berghei, GFP ANKA): 15.1 µM
CC50 [1]: 25.8 µM
selectivity ratio [2]: 1.7

Cc1ccc(CNC2CCN(c3nc(NC(C)(C)C)nc4cc(-c5ccc(C)cc5)sc34)CC2)cc1
EC50 (Plasmodium falciparum; [11]): 0.7 µM
EC50 (Plasmodium berghei; Plasmodium berghei, GFP ANKA): 15.4 µM
CC50 [1]: 35.5 µM
selectivity ratio [2]: 2.3

Cc1ccc(-c2cc3nc(NC(C)(C)C)nc(NC4CCCCC4)c3s2)cc1
EC50 (Plasmodium falciparum; [11]): 2.5 µM

Cc1ccc(-c2cc3nc(NC(C)(C)C)nc(N4CCC(NC(=O)OC(C)(C)C)CC4)c3s2)cc1
EC50 (Plasmodium falciparum; [11]): 2.1 µM

Cc1ccc(-c2cc3nc(NC(C)(C)C)nc(N4CCC(NCc5ccc(Cl)cc5)CC4)c3s2)cc1
EC50 (Plasmodium falciparum; [11]): 1 µM
EC50 (Plasmodium berghei; Plasmodium berghei, GFP ANKA): 14.2 µM
CC50 [1]: 36.1 µM
selectivity ratio [2]: 2.5

Cc1ccc(-c2cc3nc(NC(C)(C)C)nc(N4CCC(N)CC4)c3s2)cc1
EC50 (Plasmodium falciparum; [11]): 1 µM
EC50 (Plasmodium berghei; Plasmodium berghei, GFP ANKA): 31.4 µM
CC50 [1]: 31.6 µM
selectivity ratio [2]: 1

Cc1ccc(-c2cc3nc(NC(C)(C)C)nc(NC4CCC4)c3s2)cc1
EC50 (Plasmodium falciparum; [11]): 0.9 µM
EC50 (Plasmodium berghei; Plasmodium berghei, GFP ANKA): 6.5 µM
CC50 [1]: 8.8 µM
selectivity ratio [2]: 1.3

Cc1ccc(-c2cc3nc(NC(C)(C)C)nc(N4CCOCC4)c3s2)cc1
EC50 (Plasmodium falciparum; [11]): 1.6 µM

Cc1ccc(-c2cc3nc(NC(C)(C)C)nc(NCCN(C)C)c3s2)cc1.Cl.Cl
EC50 (Plasmodium falciparum): 0.4 µM
EC50 (Plasmodium berghei): 14.2 µM
CC50 (Hepatocyte): 32.5 µM
solubility at 10 min [3]: 1640 µM
chromatographic logD [4]: 4.5
Papp at 4 h [8]: 43 ×10⁻⁶ cm/s
Papp at 4 h [9]: 41.1 ×10⁻⁶ cm/s
Papp at 4 h [5]: 64.9 ×10⁻⁶ cm/s
half-life [6]: 37 min
microsomal CLint [7]: 64 µL/min/mg
IC50 [10]: 3.4 µM

Cc1ccc(-c2cc3nc(NC(C)(C)C)nc(N4CCC(NCc5ccc([N+](=O)[O-])cc5)CC4)c3s2)cc1
EC50 (Plasmodium falciparum; [11]): 0.7 µM
EC50 (Plasmodium berghei; Plasmodium berghei, GFP ANKA): 7.3 µM
CC50 [1]: 15.8 µM
selectivity ratio [2]: 2.2

CCN(CC)CCCNc1nc(NC(C)(C)C)nc2cc(-c3ccc(C)cc3)sc12
EC50 (Plasmodium falciparum; [11]): 0.2 µM
EC50 (Plasmodium berghei; Plasmodium berghei, GFP ANKA): 11.5 µM
CC50 [1]: 25.8 µM
selectivity ratio [2]: 2.2

Cc1ccc(-c2cc3nc(NC(C)(C)C)nc(NC4CC4)c3s2)cc1
EC50 (Plasmodium falciparum; [11]): 1.1 µM

Cc1ccc(-c2cc3nc(NC(C)(C)C)nc(NCCCN(C)C)c3s2)cc1
EC50 (Plasmodium falciparum; [11]): 0.3 µM
EC50 (Plasmodium berghei; Plasmodium berghei, GFP ANKA): 15.3 µM
CC50 (Hepatocyte): > 100 µM
selectivity ratio [2]: > 6.5

CCN(CC)CCCC(C)Nc1ccnc2cc(Cl)ccc12 (stereo not given) [CHLOROQUINE]
EC50 (Plasmodium falciparum; [11]): 0.8 µM

C[C@H]1c2cccc(O)c2C(=O)C2=C(O)[C@]3(O)C(=O)C(C(N)=O)=C(O)[C@@H](N(C)C)[C@@H]3[C@@H](O)[C@@H]21 [DOXYCYCLINE]
EC50 (Plasmodium falciparum; [11]): 5 µM

— ChEMBL document CHEMBL5346874, “New antiplasmodial 4-amino-thieno[3,2-d]pyrimidines with improved intestinal permeability and microsomal stability” (Eur J Med Chem, 2023)
